The source of these data is PubChem BioAssay AID328 (DTP/NCI, 2004).

Several values for one entry are separate records, joined by “and”; a condition that tells them apart may be missing. Equal values may be shown once. Toxic doses and inconclusive results are not listed.

For the test, the system named is BDF1 mice, P388 leukemia ip, median survival T/C. The experiment in a line: NCI In Vivo Anticancer Drug Screen. Data for tumor model P388 Leukemia (intraperitoneal) in B6D2F1 (BDF1) mice. Conditions: endpoint: median survival time, higher = longer survival. The gist of the method: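 Steps: implant the tumour, treat one group with compound and another with vehicle, record survival, then divide treated by control.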

[1] abbreviates: dose: 100.0 mg/kg/injection, schedule: Q04DX003 (ip), vehicle: Klucel (hydroxypropylcellulose) (HPC).
Where [2] appears, read: dose: 200.0 mg/kg/injection, schedule: Q04DX003 (ip), vehicle: Klucel (hydroxypropylcellulose) (HPC).
Setting [3] is: dose: 400.0 mg/kg/injection, schedule: Q04DX003 (ip), vehicle: Klucel (hydroxypropylcellulose) (HPC).

Turning to `O=NN(CCCl)C(=O)Nc1ccc(Cl)cc1`, the T/C by setting is: (dose: 8.2 mg/kg/injection, schedule: Q04DX003 (ip), vehicle: saline with Tween-80) 195 % of control; (dose: 12.5 mg/kg/injection, schedule: Q04DX003 (ip), vehicle: saline with Tween-80) 195 % of control; (dose: 18.75 mg/kg/injection, schedule: Q04DX003 (ip), vehicle: saline with Tween-80) 200 % of control.

Regarding `Oc1ccc(I)c2cccnc12`, the T/C runs as follows: (dose: 62.5 mg/kg/injection, schedule: Q01DX010 (ip), vehicle: carboxymethylcellulose (CMC)) 90 % of control; (dose: 250.0 mg/kg/injection, schedule: Q01DX010 (ip), vehicle: carboxymethylcellulose (CMC)) 100 % of control; (dose: 500.0 mg/kg/injection, schedule: Q01DX010 (ip), vehicle: carboxymethylcellulose (CMC)) 110 % of control.

As for `C[C@]12CC[C@@H]3c4ccc(O)cc4CC[C@H]3[C@@H]1CC[C@@H]2OC(=O)CCC1CCCC1`, the T/C is 100 % of control (dose: 100.0 mg/kg/injection, schedule: Q01DX009 (ip), vehicle: Klucel (hydroxypropylcellulose) (HPC)); 104 % of control under setting [1]; 95 % of control (dose: 200.0 mg/kg/injection, schedule: Q01DX009 (ip), vehicle: Klucel (hydroxypropylcellulose) (HPC)); 104 % of control under setting [2]; 104 % of control (dose: 400.0 mg/kg/injection, schedule: Q01DX009 (ip), vehicle: Klucel (hydroxypropylcellulose) (HPC)); 104 % of control under setting [3].

Turning to `C#CCOCC1CN(c2ccccc2)C(=O)O1` (centres undefined), the T/C under setting [1] was 95 % of control, the T/C under setting [2] was 100 % of control and the T/C under setting [3] was 100 % of control.

For the compound `CNc1ccc(OC)cc1`, the T/C is, setting by setting: (dose: 100.0 mg/kg/injection, schedule: Q01DX009 (ip), vehicle: other) 100 % of control; (dose: 200.0 mg/kg/injection, schedule: Q01DX009 (ip), vehicle: other) 104 % of control; (dose: 400.0 mg/kg/injection, schedule: Q01DX009 (ip), vehicle: other) 104 % of control.

Regarding `COc1ccc(N=C2C(=O)Nc3ccc(Br)cc32)cc1`, the T/C is, setting by setting: (dose: 50.0 mg/kg/injection, schedule: Q01DX009 (ip), vehicle: saline with Tween-80) 100 % of control; (dose: 100.0 mg/kg/injection, schedule: Q01DX009 (ip), vehicle: saline with Tween-80) 105 % of control; (dose: 200.0 mg/kg/injection, schedule: Q01DX009 (ip), vehicle: saline with Tween-80) 104 % of control; (dose: 400.0 mg/kg/injection, schedule: Q01DX009 (ip), vehicle: saline with Tween-80) 104 % of control.

For `CCCCNP(=O)(N1CC1C)N1CC1C` (centres undefined), the T/C is 122 % of control (dose: 33.0 mg/kg/injection, schedule: Q04DX003 (ip), vehicle: saline); 175 % of control and 181 % of control (dose: 50.0 mg/kg/injection, schedule: Q04DX003 (ip), vehicle: saline); 90 % of control (dose: 100.0 mg/kg/injection, schedule: Q04DX003 (ip), vehicle: saline).

Take `Cc1c(CCl)c(C)c(CCl)c(C)c1CCl`: under setting [1], the T/C is 108 % of control.

Turning to `C[n+]1cc2cc(O)c(O)cc2c2ccc3cc(O)c(O)cc3c21`, the T/C is, setting by setting: (dose: 20.0 mg/kg/injection, schedule: Q01DX009 (ip), vehicle: saline) 104 % of control; (dose: 40.0 mg/kg/injection, schedule: Q01DX009 (ip), vehicle: saline) 96 % of control; (dose: 80.0 mg/kg/injection, schedule: Q01DX009 (ip), vehicle: saline) 91 % of control; (dose: 120.0 mg/kg/injection, schedule: Q01DX009 (ip), vehicle: saline) 86 % of control; (dose: 240.0 mg/kg/injection, schedule: Q01DX009 (ip), vehicle: saline) 106 % of control.

`CC(=O)OC1OC(COC(c2ccccc2)(c2ccccc2)c2ccccc2)C(OCc2ccccc2)C(OCc2ccccc2)C1OC(C)=O` (centres undefined): the T/C is 95 % of control (dose: 21.9 mg/kg/injection, schedule: Q01DX009 (ip), vehicle: other); 98 % of control (dose: 43.8 mg/kg/injection, schedule: Q01DX009 (ip), vehicle: other); 93 % of control (dose: 87.5 mg/kg/injection, schedule: Q01DX009 (ip), vehicle: other); 88 % of control (dose: 175.0 mg/kg/injection, schedule: Q01DX009 (ip), vehicle: other); 88 % of control (dose: 350.0 mg/kg/injection, schedule: Q01DX009 (ip), vehicle: other).

As to `O=C1C(CO)=C[C@@H](O)[C@H]2O[C@@H]12`, the T/C reads like this: (dose: 0.75 mg/kg/injection, schedule: Q01DX010 (ip), vehicle: saline) 95 % of control; (dose: 1.5 mg/kg/injection, schedule: Q01DX010 (ip), vehicle: saline) 110 % of control; (dose: 3.0 mg/kg/injection, schedule: Q01DX010 (ip), vehicle: saline) 95 % of control and 120 % of control; (dose: 6.0 mg/kg/injection, schedule: Q01DX010 (ip), vehicle: saline) 95 % of control; (dose: 6.2 mg/kg/injection, schedule: Q01DX001 (ip), vehicle: saline) 155 % of control; (dose: 12.0 mg/kg/injection, schedule: Q01DX010 (ip), vehicle: saline) 100 % of control. The T/C reads like this: (dose: 12.5 mg/kg/injection, schedule: Q01DX001 (ip), vehicle: saline) 160 % of control; (dose: 24.0 mg/kg/injection, schedule: Q01DX010 (ip), vehicle: saline) 114 % of control and 115 % of control; (dose: 25.0 mg/kg/injection, schedule: Q01DX001 (ip), vehicle: saline) 150 % of control; (dose: 50.0 mg/kg/injection, schedule: Q01DX010 (ip), vehicle: saline) 110 % of control; (dose: 96.0 mg/kg/injection, schedule: Q01DX010 (ip), vehicle: saline) 160 % of control and 161 % of control; (dose: 192.0 mg/kg/injection, schedule: Q01DX010 (ip), vehicle: saline) 160 % of control. Besides, under “dose: 384.0 mg/kg/injection, schedule: Q01DX010 (ip), vehicle: saline”, the T/C was 175 % of control.

Turning to `Cc1c(N=Cc2ccccc2)c(=O)n(-c2ccccc2)n1C`, the T/C runs as follows: (dose: 100.0 mg/kg/injection, schedule: Q01DX009 (ip), vehicle: gum acacia) 110 % of control; (dose: 100.0 mg/kg/injection, schedule: Q04DX003 (ip), vehicle: gum acacia) 88 % of control; (dose: 200.0 mg/kg/injection, schedule: Q01DX009 (ip), vehicle: gum acacia) 103 % of control; (dose: 200.0 mg/kg/injection, schedule: Q04DX003 (ip), vehicle: gum acacia) 100 % of control; (dose: 400.0 mg/kg/injection, schedule: Q01DX009 (ip), vehicle: gum acacia) 92 % of control; (dose: 400.0 mg/kg/injection, schedule: Q04DX003 (ip), vehicle: gum acacia) 92 % of control.

On to `CC(=O)O[C@@H]1[C@H]2O[C@H]2[C@H]2O[C@@]2(COC(=O)c2ccccc2)[C@H]1OC(C)=O`, for which the T/C by setting is: (dose: 100.0 mg/kg/injection, schedule: Q01DX010 (ip), vehicle: steriod suspending solution) 90 % of control; (dose: 200.0 mg/kg/injection, schedule: Q01DX010 (ip), vehicle: steriod suspending solution) 90 % of control; (dose: 400.0 mg/kg/injection, schedule: Q01DX010 (ip), vehicle: steriod suspending solution) 86 % of control.

With `CC(C)CCCC(C)C1CCC2C3CC=C4CC(O)CCC4(C)C3CCC12C` (centres undefined) (tested in a mixture with another compound), the T/C reads like this: (dose: 25.0 mg/kg/injection, schedule: Q04DX003 (ip), vehicle: alcohol) 90 % of control; (dose: 50.0 mg/kg/injection, schedule: Q04DX003 (ip), vehicle: alcohol) 100 % of control; (dose: 56.25 mg/kg/injection, schedule: Q01DX009 (ip), vehicle: Klucel (hydroxypropylcellulose) (HPC)) 95 % of control; (dose: 100.0 mg/kg/injection, schedule: Q04DX003 (ip), vehicle: alcohol) 105 % of control; (dose: 112.5 mg/kg/injection, schedule: Q01DX009 (ip), vehicle: Klucel (hydroxypropylcellulose) (HPC)) 100 % of control; (dose: 150.0 mg/kg/injection, schedule: Q04DX003 (ip), vehicle: Klucel (hydroxypropylcellulose) (HPC)) 100 % of control. Moreover, the T/C (dose: 225.0 mg/kg/injection, schedule: Q01DX009 (ip), vehicle: Klucel (hydroxypropylcellulose) (HPC)) was 104 % of control and the T/C (dose: 225.0 mg/kg/injection, schedule: Q04DX003 (ip), vehicle: Klucel (hydroxypropylcellulose) (HPC)) is 104 % of control.

In the case of `[O-][n+]1c(/C=C/c2cccc3ccccc23)cccc1/C=C/c1cccc2ccccc12`, the T/C by setting is: (dose: 50.0 mg/kg/injection, schedule: Q01DX005 (ip), vehicle: saline + Tween-80 + alcohol) 94 % of control; (dose: 100.0 mg/kg/injection, schedule: Q01DX005 (ip), vehicle: saline + Tween-80 + alcohol) 96 % of control; (dose: 200.0 mg/kg/injection, schedule: Q01DX005 (ip), vehicle: saline + Tween-80 + alcohol) 96 % of control.
